These results are taken from US20100056522A1, “INTRAOCULAR PRESSURE-LOWERING AGENT COMPRISING COMPOUND HAVING HISTONE DEACETYLASE INHIBITOR EFFECT AS ACTIVE INGREDIENT” (Santen Pharmaceutical Co., Ltd., priority 2007, published 2010).

The test system of assay [1] is HDAC (HeLa nuclear extract). As to the kind of experiment: Test for evaluation of an HDAC inhibitory effect (HDAC Fluorimetric Assay/Drug Discovery Kit, Biomol). In kind it is biochemical. As to conditions: final concentration of test compound 30 μM, rates of more than 100% are shown as 100%. Here is the method:
Using HDAC Fluorimetric Assay/Drug Discovery Kit (manufactured by Biomol), an HDAC inhibitory effect of the present compounds was measured according to the protocol included with the kit. The kit contains Buffer, HeLa nuclear extract (includes an HDAC), Substrate, Developer and Trichostatin A (an HDAC inhibitor).
A test compound was dissolved in dimethyl sulfoxide, whereby a 2 mg/mL solution was prepared. Then, the resulting solution was diluted with Buffer containing 5% dimethyl sulfoxide, whereby a 150 μM test compound solution was prepared.
1) To a 384-well culture plate, the test compound solution was added in an amount of 2 μL per well.
2) HeLa nuclear extract was diluted 30-fold with Buffer. The resulting solution was added in an amount of 3 μL per well and then, incubation was performed at 37° C. for 2 hours.
3) Substrate was diluted 500-fold with Buffer. The resulting solution was added in an amount of 5 μL per well (the final concentration of the test compound was 30 μM) and then, incubation was performed at 37° C. for 10 minutes.
4) Developer was diluted 20-fold with Buffer and Trichostatin A (2 μM) was added to it. The resulting solution was added in an amount of 10 μL per well and then, incubation was performed at room temperature for 15 minutes.
5) The fluorescence intensity of each well was measured using multilabel counter ARVO (manufactured by Wallac) with excitation at 360 nm and emission at 460 nm.
6) A control data was obtained from the same experiment except that Buffer containing 5% DMSO was added instead of the test compound solution as the above-mentioned procedure from 1) to 5).
7) A blank data was obtained from the same experiment except that Buffer containing 5% DMSO was added instead of the test compound solution and that Buffer was added instead of Hela nuclear extract as the above-mentioned procedure from 1) to 5).
Enzyme inhibitory rate (%) was calculated using the following equation.
(Enzyme Inhibitory Rate(%))=100×[1−{(Fluorescence Intensity of Test Compound Solution)−(Florescence Intensity of Blank)}/{(Florescence Intensity of Control)−(Florescence Intensity of Blank)}]

Assay [2] relates to TM-1 cells (human trabecular meshwork cell line). As to the kind of experiment: Test for evaluation of effect of morphological change on trabecular meshwork cells (cell shape index). It counts as cell-based. To be noted: 10 μM, 24 hours, control CSI 0.679, lower CSI indicates greater morphological change. On the procedure: As a method for evaluating a cellular morphological change, an evaluation system using the cell shape index (hereinafter referred to as “CSI”) as an index has been reported in The Journal of Clinical Investigation, 103, 1141-1150 (1999). Therefore, according to the method described in the above document, an effect of morphological change by the present compounds on trabecular meshwork cells was evaluated.
A human trabecular meshwork cell line (hereinafter referred to as “TM-1 cells”) reported in Investigative Opthalmology & Visual Science, 43, 151-161 (2002) was used.
Culture medium 1: A reagent was prepared by adding fetal bovine serum (10%), L-glutamine (2 mM), amphotericin B (2.5 μg/mL), and gentamicin (25 μg/mL) to Dulbecco's Modified Eagle Medium (hereinafter referred to as “D-MEM”).
Culture medium 2: Fetal bovine serum (3%), L-glutamine (2 mM), amphotericin B (2.5 μg/mL), and gentamicin (25 μg/mL) were added to D-MEM.
Cell staining liquid: A mixed liquid of Calcein-AM (16 μM) and Hoechst 33342 (40 μM) was prepared by diluting a Calcein-AM solution (cytoplasmic staining reagent, manufactured by Dojindo Laboratories) and a Hoechst 33342 solution (nuclear staining reagent, manufactured by Dojindo Laboratories) with D-MEM containing L-glutamine (2 mM), amphotericin B (2.5 μg/mL), and gentamicin (25 μg/mL).
TM-1 cells subcultured at 37° C. in a 8% carbon dioxide gas atmosphere were treated with a trypsin/EDTA solution (0.05% trypsin and 0.53 mM tetrasodium ethylenediaminetetraacetate) at 24 hours before performing a drug treatment mentioned below and seeded on a 96-well culture plate. The culture medium 1 was used for the subculture of the cells. The culture medium 2 was used for the cell culture after seeding the cells on the plate.
A test compound was dissolved in dimethyl sulfoxide, whereby a 5 mM solution was prepared. Then, the resulting solution was diluted with the culture medium 2, whereby a 200 μM test compound solution was prepared.
It has been reported that Y-27632 which is a Rho kinase inhibitor induces a morphological change in trabecular meshwork cells in Investigative Opthalmology & Visual Science, 42, 137-144 (2001). Therefore, Y-27632 (produced according to the method described in WO 90/05723) was used as a positive control, and dissolved in dimethyl sulfoxide in the same manner as the test compound, whereby a 5 mM solution was prepared, and then, the resulting solution was diluted with the culture medium 2, whereby a 200 μM positive control compound solution was prepared.
1) To a 96-well culture plate, a solution of TM-1 cells adjusted to a cell density of […] was added in an amount of 95 μL (1.5×10^4 cells) per well.
2) Incubation was performed at 37° C. in a 8% carbon dioxide gas atmosphere for 24 hours.
3) The test compound solution or positive control compound solution was added in an amount of 5 μL per well (the final concentration of the test compound or positive control compound was 10 μM). As a control, the culture medium 2 containing dimethyl sulfoxide (4%) was added in an amount of 5 μL per well.
4) Incubation was performed at 37° C. in a 8% carbon dioxide gas atmosphere for 24 hours.
5) The cell staining liquid was added in an amount of 10 μL per well.
6) Incubation was performed at 37° C. in a 8% carbon dioxide gas atmosphere for 1 hour to stain the cells.
7) A 37% formaldehyde solution was added in an amount of 10 μL per well.
8) Incubation was performed at room temperature for 1 hour to fix the cells.
9) Washing with phosphate-buffered saline was performed.
10) Using Array Scan Vti HCS reader (manufactured by Cellomics), images of stained cells magnified with a 20-fold objective lens were captured in 80 fields (10 fields×8 wells) per test compound addition group.
11) CSI was calculated for each cell and an average value was obtained for each test compound addition group.
CSI was calculated using the following equation.
CSI=4π×(Cell Area)/(Cell Perimeter)^2

`CN(C)CCCN(Cc1ccc(C(=O)Nc2ccccc2N)nc1)C(=O)Nc1ccc(OC(F)(F)F)cc1` [Compound 1-21, N-(2-Aminophenyl)-5-[1-(3-dimethylaminopropyl)-3-(4-trifluoromethoxyphenyl)ureidomethyl]pyridine-2-carboxylic acid amide]: the “Enzyme Inhibitory Rate (%)” value in assay [1] was 98%. In assay [2], this compound had a CSI of 0.575.
As for `N#Cc1ccc(NC(=O)N(CCCO)Cc2ccc(C(=O)Nc3ccccc3N)nc2)cc1` [Compound 1-24, N-(2-Aminophenyl)-5-[3-(4-cyanophenyl)-1-(3-hydroxypropyl)ureidomethyl]pyridine-2-carboxylic acid amide], the “Enzyme Inhibitory Rate (%)” value in assay [1] was 96%. The CSI in assay [2] is recorded as 0.597.
In the same order, the values of `Nc1ccccc1NC(=O)c1ccc(CN(CCCO)C(=O)Nc2ccc3c(c2)OCO3)cn1` [Compound 1-25, N-(2-Aminophenyl)-5-[3-(benzo[1,3]dioxol-5-yl)-1-(3-hydroxypropyl)ureidomethyl]pyridine-2-carboxylic acid amide] are 97% and 0.571.
Turning to `CCOC(=O)CCN(Cc1ccc(C(=O)Nc2ccccc2N)nc1)C(=O)Nc1ccc(N(C)C)cc1` [Compound 1-27, N-(2-Aminophenyl)-5-[3-(4-dimethylaminophenyl)-1-(2-ethoxycarbonylethyl)ureidomethyl]pyridine-2-carboxylic acid amide], in assay [1], the “Enzyme Inhibitory Rate (%)” value came to 97%. In assay [2], this compound came in with a CSI of 0.624.
Take `CN(C)CCCN(Cc1ccc(C(=O)Nc2ccccc2N)nc1)C(=O)Nc1nc2ccccc2s1` [Compound 1-30, N-(2-Aminophenyl)-5-[3-(1,3-benzothiazol-2-yl)-1-(3-dimethylaminopropyl)ureidomethyl]pyridine-2-carboxylic acid amide]: the “Enzyme Inhibitory Rate (%)” value in assay [1] was 100%. This compound also showed a CSI in assay [2] of 0.564.
For the compound `CN(C)CCCN(Cc1ccc(C(=O)Nc2ccccc2N)nc1)C(=O)Nc1nc2ccccc2[nH]1` [Compound 1-31, N-(2-Aminophenyl)-5-[3-(1H-benzimidazol-2-yl)-1-(3-dimethylaminopropyl)ureidomethyl]pyridine-2-carboxylic acid amide], the “Enzyme Inhibitory Rate (%)” value in assay [1] stood at 99%. The compound further had a CSI in assay [2] of 0.551.
As to `Nc1ccccc1NC(=O)c1ccc(CN(CCCN2CCOCC2)C(=O)Nc2ccc3c(c2)CCO3)cn1` [Compound 1-38, N-(2-Aminophenyl)-5-[3-(2,3-dihydro-1-benzofuran-5-yl)-1-[3-(morpholin-4-yl)propyl]ureidomethyl]pyridine-2-carboxylic acid amide], the “Enzyme Inhibitory Rate (%)” value in assay [1] is listed as 97%. This compound also showed a CSI in assay [2] of 0.575.
In the case of `CN(C)CCCN(Cc1ccc(C(=O)Nc2ccccc2N)nc1)C(=O)NCC(=O)c1ccccc1` [Compound 1-40, N-(2-Aminophenyl)-5-[1-(3-dimethylaminopropyl)-3-(phenylcarbonylmethyl)ureidomethyl]pyridine-2-carboxylic acid amide], in assay [1], the “Enzyme Inhibitory Rate (%)” value is on record as 97%. The CSI in assay [2] was 0.572.
Take `CN(C)CCCN(Cc1ccc(C(=O)Nc2ccccc2N)nc1)C(=O)Nc1nccs1` [Compound 1-41, N-(2-Aminophenyl)-5-[1-(3-dimethylaminopropyl)-3-(1,3-thiazol-2-yl)ureidomethyl]pyridine-2-carboxylic acid amide]: in assay [1], the “Enzyme Inhibitory Rate (%)” value is reported as 96%. Moreover, the CSI in assay [2] turned out to be 0.499.
In the case of `COc1ccc2nc(NC(=O)N(CCCN(C)C)Cc3ccc(C(=O)Nc4ccccc4N)nc3)sc2c1` [Compound 1-42, N-(2-Aminophenyl)-5-[1-(3-dimethylaminopropyl)-3-(6-methoxy-1,3-benzothiazol-2-yl)ureidomethyl]pyridine-2-carboxylic acid amide], in assay [1], the “Enzyme Inhibitory Rate (%)” value came out at 98%. In addition, the CSI in assay [2] was 0.536.
For the compound `CN(C)CCCN(Cc1ccc(C(=O)Nc2ccccc2N)nc1)C(=O)Nc1nc2ccc(F)cc2s1` [Compound 1-44, N-(2-Aminophenyl)-5-[1-(3-dimethylaminopropyl)-3-(6-fluoro-1,3-benzothiazol-2-yl)ureidomethyl]pyridine-2-carboxylic acid amide], the “Enzyme Inhibitory Rate (%)” value in assay [1] stood at 98%. This compound also displayed a CSI in assay [2] of 0.554.
`CCN(CC)CCCN(Cc1ccc(C(=O)Nc2ccccc2N)nc1)C(=O)Nc1ccc(F)c(F)c1` [Compound 1-46, N-(2-Aminophenyl)-5-[1-(3-diethylaminopropyl)-3-(3,4-difluorophenyl)ureidomethyl]pyridine-2-carboxylic acid amide]: the “Enzyme Inhibitory Rate (%)” value in assay [1] amounted to 98%. This compound also yielded a CSI in assay [2] of 0.547.
Take `CCN(CC)CCCN(Cc1ccc(C(=O)Nc2ccccc2N)nc1)C(=O)Nc1ccc(F)c([N+](=O)[O-])c1` [Compound 1-51, N-(2-Aminophenyl)-5-[1-(3-diethylaminopropyl)-3-(4-fluoro-3-nitrophenyl)ureidomethyl]pyridine-2-carboxylic acid amide]: in assay [1], the “Enzyme Inhibitory Rate (%)” value came out at 98%. In assay [2], this compound registered a CSI of 0.518.
As to `CN(C)CCN(Cc1ccc(C(=O)Nc2ccccc2N)nc1)C(=O)Nc1ccc2c(c1)OCCO2` [Compound 1-53, N-(2-Aminophenyl)-5-[3-(2,3-dihydrobenzo[1,4]dioxin-6-yl)-1-(2-dimethylaminoethyl)ureidomethyl]pyridine-2-carboxylic acid amide], the “Enzyme Inhibitory Rate (%)” value in assay [1] was 98%. The compound also had a CSI in assay [2] of 0.502.
Consider `CN(C)CCN(Cc1ccc(C(=O)Nc2ccccc2N)nc1)C(=O)Nc1cccc(F)c1` [Compound 1-55, N-(2-Aminophenyl)-5-[1-(2-dimethylaminoethyl)-3-(3-fluorophenyl)ureidomethyl]pyridine-2-carboxylic acid amide], for which the “Enzyme Inhibitory Rate (%)” value in assay [1] was found to be 98%. Also, in assay [2], the CSI is reported as 0.525.
In the same order, the values of `CN(C)CCN(Cc1ccc(C(=O)Nc2ccccc2N)nc1)C(=O)Nc1ccsc1` [Compound 1-56, N-(2-Aminophenyl)-5-[1-(2-dimethylaminoethyl)-3-(thiophen-3-yl)ureidomethyl]pyridine-2-carboxylic acid amide] are 97% and 0.526.
